In PubChem BioAssay (NCI):
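Abbreviation: GI50, concentration required for 50% inhibition of growth. TGI is the concentration that stops growth completely.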

Legend:
Assay in all cases: NCI anticancer screen, dose series, 384-well format
T-47D breast = tested on: T-47D breast
SK-MEL-5 melanoma = tested on: SK-MEL-5 melanoma
SN12C renal = tested on: SN12C renal
U251 glioblastoma = tested on: U251 glioblastoma
ACHN renal = tested on: ACHN renal
LOX IMVI melanoma = tested on: LOX IMVI melanoma
SR leukemia = tested on: SR leukemia
COLO 205 colon = tested on: COLO 205 colon
NCI-H522 lung = tested on: NCI-H522 lung
A549 NSCLC = tested on: A549 NSCLC
SF-295 CNS = tested on: SF-295 CNS
K-562 leukemia = tested on: K-562 leukemia
SF-268 CNS = tested on: SF-268 CNS

Question: For `C[C@H](NC(=O)c1c(N)nn2cccnc12)c1cc2cccc(C#Cc3cnn(C)c3)c2c(=O)n1-c1ccccc1`, which GI50 (T-47D breast) is on record?
Answer: The GI50 was 0.375 µM.

Question: What about the TGI (T-47D breast) of the same molecule?
Answer: The TGI was 2.41 µM.

Question: What about the GI50 (SK-MEL-5 melanoma) of the same molecule?
Answer: Its GI50 is 5.38 µM.

Question: What about the TGI (SK-MEL-5 melanoma) of the same molecule?
Answer: The TGI was 20 µM.

Question: And the GI50 (SN12C renal)?
Answer: The GI50 was 4.38 µM.

Question: What about the TGI (SN12C renal) of the same molecule?
Answer: The TGI was 20 µM.

Question: And the GI50 (U251 glioblastoma)?
Answer: The GI50 was 12.3 µM.

Question: What about the TGI (U251 glioblastoma) of the same molecule?
Answer: Its TGI is 25.1 µM.

Question: And the GI50 (ACHN renal)?
Answer: Its GI50 is 4.31 µM.

Question: And the TGI (ACHN renal)?
Answer: Its TGI is 19.4 µM.

Question: And the GI50 (LOX IMVI melanoma)?
Answer: The GI50 was 2.95 µM.

Question: And the TGI (LOX IMVI melanoma)?
Answer: The TGI was 12.7 µM.

Question: And the GI50 (SR leukemia)?
Answer: The GI50 was 4.16 µM.

Question: And the TGI (SR leukemia)?
Answer: Its TGI is 16.9 µM.

Question: And the GI50 (COLO 205 colon)?
Answer: Its GI50 is 8.8 µM.

Question: And the TGI (COLO 205 colon)?
Answer: The TGI was 22.7 µM.

Question: What about the GI50 (NCI-H522 lung) of the same molecule?
Answer: Its GI50 is 4.55 µM.

Question: And the TGI (NCI-H522 lung)?
Answer: The TGI was 18.7 µM.

Question: What about the GI50 (A549 NSCLC) of the same molecule?
Answer: Its GI50 is 4.45 µM.

Question: What about the TGI (A549 NSCLC) of the same molecule?
Answer: Its TGI is 17.6 µM.

Question: And the GI50 (SF-295 CNS)?
Answer: Its GI50 is 4.14 µM.

Question: What about the TGI (SF-295 CNS) of the same molecule?
Answer: The TGI was 17.1 µM.

Question: What about the GI50 (K-562 leukemia) of the same molecule?
Answer: Its GI50 is 7.56 µM.

Question: And the TGI (K-562 leukemia)?
Answer: The TGI was 20.3 µM.

Question: What about the GI50 (SF-268 CNS) of the same molecule?
Answer: Its GI50 is 2.02 µM.

Question: And the TGI (SF-268 CNS)?
Answer: Its TGI is 9.93 µM.
